Measurements as given in ChEMBL document CHEMBL5303573, “Mapping human microbiome drug metabolism by gut bacteria and their genes” (Nature, 2019).

Columns and labels:
[1] = The drug is tested on Clostridium scindens strain: ATCC35704 for biotransformation. The drug concentrations were measured before and after a 12-h incubation by liquid-chromatography-coupled mass spectrometry (LC–MS); conditions: 2 µM
[2] = The drug is tested on Anaerococcus hydrogenalis strain: DSM7454 for biotransformation. The drug concentrations were measured before and after a 12-h incubation by liquid-chromatography-coupled mass spectrometry (LC–MS); conditions: 2 µM
[3] = bacteroides stercoris, 12 h, 2 µM
Description: The drug is tested on Bacteroides stercoris strain: ATCC43183 for biotransformation. The drug concentrations were measured before and after a 12-h incubation by liquid-chromatography-coupled mass spectrometry (LC–MS)

[4] = The drug is tested on Enterococcus faecalis strain: V583 for biotransformation. The drug concentrations were measured before and after a 12-h incubation by liquid-chromatography-coupled mass spectrometry (LC–MS); conditions: 2 µM
[5] = The drug is tested on Odoribacter splanchnicus strain: fecal isolate for biotransformation. The drug concentrations were measured before and after a 12-h incubation by liquid-chromatography-coupled mass spectrometry (LC–MS); conditions: 2 µM
[6] = The drug is tested on Eubacterium ventriosum strain: ATCC27560 for biotransformation. The drug concentrations were measured before and after a 12-h incubation by liquid-chromatography-coupled mass spectrometry (LC–MS); assay type: ADME; design: dose 2 uM, timepoint 0 vs 12 hours; conditions: 2 µM
[7] = bacteroides thetaiotaomicron, 12 h, 2 µM
Description: The drug is tested on Bacteroides thetaiotaomicron strain: 7330 for biotransformation. The drug concentrations were measured before and after a 12-h incubation by liquid-chromatography-coupled mass spectrometry (LC–MS)

[8] = bifidobacterium adolescentis, 12 h, 2 µM
Description: The drug is tested on Bifidobacterium adolescentis strain: ATCC 15703 for biotransformation. The drug concentrations were measured before and after a 12-h incubation by liquid-chromatography-coupled mass spectrometry (LC–MS)

[9] = The drug is tested on Providencia stuartii strain: ATCC25827 for biotransformation. The drug concentrations were measured before and after a 12-h incubation by liquid-chromatography-coupled mass spectrometry (LC–MS); conditions: 2 µM
[10] = bacteroides eggerthii, 12 h, 2 µM
Description: The drug is tested on Bacteroides eggerthii strain: DSM20697 for biotransformation. The drug concentrations were measured before and after a 12-h incubation by liquid-chromatography-coupled mass spectrometry (LC–MS)

[11] = limosilactobacillus reuteri cf48-3a, 12 h, 2 µM
Description: The drug is tested on Lactobacillus reuteri CF48-3A strain: BEI HM-102 for biotransformation. The drug concentrations were measured before and after a 12-h incubation by liquid-chromatography-coupled mass spectrometry (LC–MS)

[12] = The drug is tested on Blautia hansenii strain: DSM20583 for biotransformation. The drug concentrations were measured before and after a 12-h incubation by liquid-chromatography-coupled mass spectrometry (LC–MS); conditions: 2 µM
[13] = anaerostipes sp., 12 h, 2 µM
Description: The drug is tested on Anaerostipes sp. strain: fecal isolate for biotransformation. The drug concentrations were measured before and after a 12-h incubation by liquid-chromatography-coupled mass spectrometry (LC–MS)

[14] = bacteroides fragilis, 12 h, 2 µM
Description: The drug is tested on Bacteroides fragilis strain: 3397 (T10) for biotransformation. The drug concentrations were measured before and after a 12-h incubation by liquid-chromatography-coupled mass spectrometry (LC–MS)

[15] = The drug is tested on Bacteroides finegoldii strain: DSM17565 for biotransformation. The drug concentrations were measured before and after a 12-h incubation by liquid-chromatography-coupled mass spectrometry (LC–MS); conditions: 2 µM
[16] = The drug is tested on Clostridium sp. strain: fecal isolate for biotransformation. The drug concentrations were measured before and after a 12-h incubation by liquid-chromatography-coupled mass spectrometry (LC–MS); conditions: 2 µM
[17] = The drug is tested on Clostridium symbiosum strain: ATCC14940 for biotransformation. The drug concentrations were measured before and after a 12-h incubation by liquid-chromatography-coupled mass spectrometry (LC–MS); conditions: 2 µM
[18] = The drug is tested on Subdoligranulum variabile strain: DSM15176 for biotransformation. The drug concentrations were measured before and after a 12-h incubation by liquid-chromatography-coupled mass spectrometry (LC–MS); conditions: 2 µM
[19] = The drug is tested on Bacteroides cellulosilyticus strain: DSM14838 for biotransformation. The drug concentrations were measured before and after a 12-h incubation by liquid-chromatography-coupled mass spectrometry (LC–MS); conditions: 2 µM

Bacterial Biotransformation [1]	Bacterial Biotransformation [2]	Bacterial Biotransformation [3]	Bacterial Biotransformation [4]	Bacterial Biotransformation [5]	Bacterial Biotransformation [6]	Bacterial Biotransformation [7]	Bacterial Biotransformation [8]	Bacterial Biotransformation [9]	Bacterial Biotransformation [10]	Bacterial Biotransformation [11]	Bacterial Biotransformation [12]	Bacterial Biotransformation [13]	Bacterial Biotransformation [14]	Bacterial Biotransformation [15]	Bacterial Biotransformation [16]	Bacterial Biotransformation [17]	Bacterial Biotransformation [18]	Bacterial Biotransformation [19]	Compound
Compound NOT metabolized	Compound NOT metabolized	Compound NOT metabolized	Compound NOT metabolized	Compound metabolized	Compound NOT metabolized	Compound metabolized	Compound NOT metabolized	Compound NOT metabolized	Compound NOT metabolized	Compound NOT metabolized	Compound NOT metabolized	Compound NOT metabolized	Compound NOT metabolized	Compound metabolized	Compound NOT metabolized	Compound NOT metabolized	–	–	CCCCC(=O)N(Cc1ccc(-c2ccccc2-c2nnn[nH]2)cc1)[C@H](C(=O)O)C(C)C
Compound NOT metabolized	Compound metabolized	Compound NOT metabolized	Compound NOT metabolized	Compound NOT metabolized	–	–	Compound NOT metabolized	Compound NOT metabolized	Compound NOT metabolized	Compound NOT metabolized	Compound NOT metabolized	Compound NOT metabolized	Compound NOT metabolized	Compound metabolized	Compound NOT metabolized	Compound NOT metabolized	Compound NOT metabolized	Compound NOT metabolized	COc1ccc(/C=C/C(=O)Nc2ccccc2C(=O)O)cc1OC
Compound NOT metabolized	Compound NOT metabolized	Compound metabolized	Compound NOT metabolized	Compound metabolized	Compound NOT metabolized	–	Compound NOT metabolized	–	Compound metabolized	Compound NOT metabolized	Compound metabolized	Compound NOT metabolized	–	Compound NOT metabolized	Compound NOT metabolized	Compound NOT metabolized	Compound NOT metabolized	Compound NOT metabolized	CCC(=O)NCC[C@@H]1CCc2ccc3c(c21)CCO3 [RAMELTEON]
Compound NOT metabolized	Compound NOT metabolized	Compound NOT metabolized	Compound NOT metabolized	Compound NOT metabolized	Compound NOT metabolized	Compound NOT metabolized	Compound NOT metabolized	Compound NOT metabolized	Compound NOT metabolized	Compound NOT metabolized	–	Compound NOT metabolized	Compound NOT metabolized	Compound NOT metabolized	Compound NOT metabolized	Compound NOT metabolized	Compound NOT metabolized	–	Cc1ccc(/C(=C\CN2CCCC2)c2ccccn2)cc1 [TRIPROLIDINE]

Further lines, the compound ahead of its results:

Compound	Bacterial Biotransformation [1]	Bacterial Biotransformation [2]	Bacterial Biotransformation [3]	Bacterial Biotransformation [4]	Bacterial Biotransformation [5]	Bacterial Biotransformation [6]	Bacterial Biotransformation [7]	Bacterial Biotransformation [8]	Bacterial Biotransformation [9]	Bacterial Biotransformation [10]	Bacterial Biotransformation [11]	Bacterial Biotransformation [12]	Bacterial Biotransformation [13]	Bacterial Biotransformation [14]	Bacterial Biotransformation [15]	Bacterial Biotransformation [16]	Bacterial Biotransformation [17]	Bacterial Biotransformation [18]	Bacterial Biotransformation [19]
Cc1cc(C)cc(OCC2CNC(=O)O2)c1 (stereo unspecified) [METAXALONE]	Compound NOT metabolized	Compound NOT metabolized	–	Compound NOT metabolized	Compound NOT metabolized	Compound NOT metabolized	–	Compound NOT metabolized	Compound NOT metabolized	–	Compound NOT metabolized	Compound metabolized	Compound NOT metabolized	–	–	Compound metabolized	Compound NOT metabolized	–	–
C=C[C@H]1CN2CC[C@H]1C[C@H]2[C@H](O)c1ccnc2ccc(OC)cc12.C=C[C@H]1CN2CC[C@H]1C[C@H]2[C@H](O)c1ccnc2ccc(OC)cc12.O.O.O=S(=O)(O)O [QUININE SULFATE]	–	Compound NOT metabolized	Compound NOT metabolized	Compound NOT metabolized	Compound NOT metabolized	Compound NOT metabolized	Compound NOT metabolized	Compound NOT metabolized	Compound NOT metabolized	Compound NOT metabolized	Compound NOT metabolized	–	Compound NOT metabolized	–	Compound NOT metabolized	–	–	–	–
CCN(CC)CCNC(=O)c1cc(S(C)(=O)=O)ccc1OC [TIAPRIDE]	Compound NOT metabolized	Compound NOT metabolized	–	Compound NOT metabolized	Compound NOT metabolized	–	Compound NOT metabolized	Compound NOT metabolized	Compound NOT metabolized	–	Compound NOT metabolized	Compound NOT metabolized	Compound NOT metabolized	–	Compound NOT metabolized	Compound NOT metabolized	Compound NOT metabolized	Compound NOT metabolized	–
O=C(O[C@H]1C[C@H]2CC[C@@H](C1)[N+]21CCCC1)C(O)(c1ccccc1)c1ccccc1.[Cl-] [TROSPIUM CHLORIDE]	Compound NOT metabolized	Compound NOT metabolized	Compound NOT metabolized	Compound NOT metabolized	–	Compound NOT metabolized	Compound NOT metabolized	Compound NOT metabolized	Compound NOT metabolized	Compound NOT metabolized	Compound NOT metabolized	–	Compound NOT metabolized	Compound NOT metabolized	Compound NOT metabolized	–	Compound NOT metabolized	Compound NOT metabolized	Compound NOT metabolized
